Peptide text beside a SMILES is read from it.
Test system: MT4
Assay: Inhibitory potency of gp41 fragment against HIV-1 induced cytopathic effect in MT-4 cell assay
Format: functional, cell-based
Settings: Homo sapiens

Question: For `CC[C@H](C)[C@H](NC(=O)CNC(=O)[C@H](Cc1c[nH]c2ccccc12)NC(=O)[C@@H](NC(=O)[C@@H](NC(=O)[C@H](CC(C)C)NC(=O)[C@H](CCC(N)=O)NC(=O)[C@H](CC(C)C)NC(=O)CNC(=O)CNC(=O)[C@H](CS)NC(C)=O)[C@@H](C)O)C(C)C)C(=O)N[C@@H](CCCCN)C(=O)N[C@@H](CCC(N)=O)C(=O)N[C@@H](CC(C)C)C(=O)N[C@@H](CCC(N)=O)C(=O)N[C@@H](C)C(=O)N[C@@H](CCCN=C(N)N)C(=O)N[C@H](C(=O)N[C@@H](CC(C)C)C(=O)N[C@@H](C)C(=O)N[C@H](C(=O)N[C@@H](CCC(=O)O)C(=O)N[C@@H](CCCN=C(N)N)C(=O)N[C@@H](Cc1ccc(O)cc1)C(=O)N[C@@H](CC(C)C)C(=O)N[C@@H](CCCCN)C(=O)N[C@@H](CC(=O)O)C(=O)N[C@@H](CCC(N)=O)C(=O)O)C(C)C)[C@@H](C)CC` (Ac-CGGLQLTVWGIKQLQARILAVERYLKDQ-OH), which IC50 is on record?
Answer: Its IC50 is 60.5 µM.

Question: With `CC[C@H](C)[C@H](NC(=O)CNC(=O)[C@H](Cc1c[nH]c2ccccc12)NC(=O)[C@@H](NC(=O)[C@@H](NC(=O)[C@H](CC(C)C)NC(=O)[C@H](CCC(N)=O)NC(=O)[C@H](CC(C)C)NC(=O)[C@H](CC(C)C)NC(=O)[C@H](Cc1c[nH]cn1)NC(=O)[C@H](CCC(N)=O)NC(=O)[C@H](CCC(N)=O)NC(=O)[C@H](C)NC(=O)[C@H](CCC(=O)O)NC(=O)[C@@H](NC(=O)[C@H](C)NC(=O)[C@H](CCCN=C(N)N)NC(=O)[C@H](CC(C)C)NC(=O)[C@H](CC(C)C)NC(=O)[C@H](CC(N)=O)NC(=O)[C@H](CC(N)=O)NC(=O)CNC(=O)CNC(=O)[C@H](CS)NC(C)=O)[C@@H](C)CC)[C@@H](C)O)C(C)C)C(=O)N[C@@H](CCCCN)C(=O)N[C@@H](CCC(N)=O)C(=O)O` (Ac-CGGNNLLRAIEAQQHLLQLTVWGIKQ-OH) as the compound, how does the IC50 read?
Answer: The IC50 was 14.8 µM.

Question: How did the IC50 turn out when `CC[C@H](C)[C@H](NC(C)=O)C(=O)N[C@@H](CCC(=O)O)C(=O)N[C@@H](C)C(=O)N[C@@H](CCC(N)=O)C(=O)N[C@@H](CCC(N)=O)C(=O)N[C@@H](Cc1c[nH]cn1)C(=O)N[C@@H](CC(C)C)C(=O)N[C@@H](CC(C)C)C(=O)N[C@@H](CCC(N)=O)C(=O)N[C@@H](CC(C)C)C(=O)N[C@H](C(=O)N[C@H](C(=O)N[C@@H](Cc1c[nH]c2ccccc12)C(=O)NCC(=O)N[C@H](C(=O)N[C@@H](CCCCN)C(=O)N[C@@H](CCC(N)=O)C(=O)N[C@@H](CC(C)C)C(=O)N[C@@H](CCC(N)=O)C(=O)N[C@@H](C)C(=O)N[C@@H](CCCN=C(N)N)C(=O)N[C@H](C(=O)N[C@@H](CC(C)C)C(=O)N[C@@H](C)C(=O)N[C@H](C(=O)N[C@@H](CCC(=O)O)C(=O)O)C(C)C)[C@@H](C)CC)[C@@H](C)CC)C(C)C)[C@@H](C)O` (Ac-IEAQQHLLQLTVWGIKQLQARILAVE-OH) was run?
Answer: Its IC50 is 6.5 µM.

Question: Which IC50 does the source give for `CC[C@H](C)[C@H](NC(=O)CNC(=O)[C@H](Cc1c[nH]c2ccccc12)NC(=O)[C@@H](NC(=O)[C@@H](NC(=O)[C@H](CC(C)C)NC(=O)[C@H](CCC(N)=O)NC(=O)[C@H](CC(C)C)NC(=O)[C@H](CC(C)C)NC(=O)[C@H](Cc1c[nH]cn1)NC(=O)[C@H](C)NC(=O)[C@H](CCC(N)=O)NC(=O)[C@H](C)NC(=O)[C@H](CCC(=O)O)NC(=O)[C@@H](NC(=O)[C@H](C)NC(=O)[C@H](CCCN=C(N)N)NC(=O)[C@H](C)NC(=O)[C@H](CC(C)C)NC(=O)[C@H](CC(N)=O)NC(=O)[C@H](CC(N)=O)NC(C)=O)[C@@H](C)CC)[C@@H](C)O)C(C)C)C(=O)N[C@@H](CCCCN)C(=O)N[C@@H](CCC(N)=O)C(=O)N[C@@H](CC(C)C)C(=O)N[C@@H](CCC(N)=O)C(=O)N[C@@H](C)C(=O)N[C@@H](CCCN=C(N)N)C(=O)N[C@H](C(=O)N[C@@H](CC(C)C)C(=O)N[C@@H](C)C(=O)N[C@H](C(=O)N[C@@H](CCC(=O)O)C(=O)N[C@@H](CCCN=C(N)N)C(=O)N[C@@H](Cc1ccc(O)cc1)C(=O)N[C@@H](CC(C)C)C(=O)N[C@@H](CCCCN)C(=O)N[C@@H](CC(=O)O)C(=O)N[C@@H](CCC(N)=O)C(=O)O)C(C)C)[C@@H](C)CC` (Ac-NNLARAIEAQAHLLQLTVWGIKQLQARILAVERYLKDQ-OH) here?
Answer: Its IC50 is 3 µM.

Question: How did the IC50 turn out when `CC[C@H](C)[C@H](NC(=O)CNC(=O)[C@H](Cc1c[nH]c2ccccc12)NC(=O)[C@@H](NC(=O)[C@@H](NC(=O)[C@H](CC(C)C)NC(=O)[C@H](CCC(N)=O)NC(=O)[C@H](CC(C)C)NC(=O)[C@H](CC(C)C)NC(=O)[C@H](Cc1c[nH]cn1)NC(=O)[C@H](CCC(N)=O)NC(C)=O)[C@@H](C)O)C(C)C)C(=O)N[C@@H](CCCCN)C(=O)N[C@@H](CCC(N)=O)C(=O)N[C@@H](CC(C)C)C(=O)N[C@@H](CCC(N)=O)C(=O)N[C@@H](C)C(=O)N[C@@H](CCCN=C(N)N)C(=O)N[C@H](C(=O)N[C@@H](CC(C)C)C(=O)N[C@@H](C)C(=O)N[C@H](C(=O)N[C@@H](CCC(=O)O)C(=O)O)C(C)C)[C@@H](C)CC` (Ac-QHLLQLTVWGIKQLQARILAVE-OH) was run?
Answer: Its IC50 is 4.3 µM.

Question: Which IC50 does the source give for `CC[C@H](C)[C@H](NC(=O)CNC(=O)[C@H](Cc1c[nH]c2ccccc12)NC(=O)[C@@H](NC(=O)[C@@H](NC(=O)[C@H](CC(C)C)NC(=O)[C@H](CCC(N)=O)NC(=O)[C@H](CC(C)C)NC(=O)[C@H](CC(C)C)NC(=O)[C@H](Cc1c[nH]cn1)NC(=O)[C@H](CCC(N)=O)NC(=O)[C@H](CCC(N)=O)NC(=O)[C@H](C)NC(=O)[C@H](CCC(=O)O)NC(=O)[C@@H](NC(=O)[C@H](C)NC(=O)[C@H](CCCN=C(N)N)NC(=O)[C@H](CC(C)C)NC(=O)[C@H](CC(C)C)NC(=O)[C@H](CC(N)=O)NC(=O)[C@@H](N)CC(N)=O)[C@@H](C)CC)[C@@H](C)O)C(C)C)C(=O)N[C@@H](CCCCN)C(=O)N[C@@H](CCC(N)=O)C(=O)N[C@@H](CC(C)C)C(=O)N[C@@H](CCC(N)=O)C(=O)N[C@@H](C)C(=O)N[C@@H](CCCN=C(N)N)C(=O)N[C@H](C(=O)N[C@@H](CC(C)C)C(=O)N[C@@H](C)C(=O)N[C@H](C(=O)N[C@@H](CCC(=O)O)C(=O)N[C@@H](CCCN=C(N)N)C(=O)N[C@@H](Cc1ccc(O)cc1)C(=O)N[C@@H](CC(C)C)C(=O)N[C@@H](CCCCN)C(=O)N[C@@H](CC(=O)O)C(=O)N[C@@H](CCC(N)=O)C(=O)O)C(C)C)[C@@H](C)CC` (H-NNLLRAIEAQQHLLQLTVWGIKQLQARILAVERYLKDQ-OH) here?
Answer: Its IC50 is 2.7 µM.

Question: With `CC[C@H](C)[C@H](NC(=O)CNC(=O)[C@H](Cc1c[nH]c2ccccc12)NC(=O)[C@@H](NC(=O)[C@@H](NC(=O)[C@H](CC(C)C)NC(=O)[C@H](CCC(N)=O)NC(=O)[C@H](CC(C)C)NC(=O)[C@H](CC(C)C)NC(=O)CCCCCN)[C@@H](C)O)C(C)C)C(=O)N[C@@H](CCCCN)C(=O)N[C@@H](CCC(N)=O)C(=O)N[C@@H](CC(C)C)C(=O)N[C@@H](CCC(N)=O)C(=O)N[C@@H](C)C(=O)N[C@@H](CCCN=C(N)N)C(=O)N[C@H](C(=O)N[C@@H](CC(C)C)C(=O)O)[C@@H](C)CC` (HELM PEPTIDE1{[NCCCCCC(=O)[*:2]].L.L.Q.L.T.V.W.G.I.K.Q.L.Q.A.R.I.L}$$$$V2.0) as the compound, how does the IC50 read?
Answer: Its IC50 is 10.4 µM.

Question: For `CC[C@H](C)[C@H](NC(=O)CNC(=O)[C@H](Cc1c[nH]c2ccccc12)NC(=O)[C@@H](NC(=O)[C@@H](NC(=O)[C@H](CC(C)C)NC(=O)[C@H](CCC(N)=O)NC(=O)[C@H](CC(C)C)NC(=O)[C@H](CC(C)C)NC(=O)[C@H](Cc1c[nH]cn1)NC(=O)[C@H](CCC(N)=O)NC(=O)[C@H](CCC(N)=O)NC(=O)[C@H](C)NC(=O)[C@H](CCC(=O)O)NC(=O)[C@@H](NC(=O)[C@H](C)NC(=O)[C@H](CCCN=C(N)N)NC(=O)[C@H](CC(C)C)NC(=O)[C@H](CC(C)C)NC(=O)[C@H](CC(N)=O)NC(=O)[C@H](CC(N)=O)NC(C)=O)[C@@H](C)CC)[C@@H](C)O)C(C)C)C(=O)N[C@@H](CCCCN)C(=O)N[C@@H](CCC(N)=O)C(=O)N[C@@H](CC(C)C)C(=O)N[C@@H](CCC(N)=O)C(=O)N[C@@H](C)C(=O)N[C@@H](CCCN=C(N)N)C(=O)N[C@H](C(=O)N[C@@H](C)C(=O)N[C@@H](C)C(=O)N[C@@H](C)C(=O)NCCCCCC(=O)N[C@@H](C)C(=O)N[C@@H](C)C(=O)N[C@@H](C)C(=O)N[C@@H](C)C(=O)N[C@@H](CC(=O)O)C(=O)N[C@@H](CCCCN)C(=O)O)[C@@H](C)CC` (HELM PEPTIDE1{[ac].N.N.L.L.R.A.I.E.A.Q.Q.H.L.L.Q.L.T.V.W.G.I.K.Q.L.Q.A.R.I.A.A.A.[O=C(CCCCCN[*:1])[*:2]].A.A.A.A.D.K}$$$$V2.0), which IC50 is on record?
Answer: Its IC50 is 6.3 µM.

Question: How did the IC50 turn out when `CC[C@H](C)[C@H](NC(=O)[C@H](CCCN=C(N)N)NC(=O)[C@H](C)NC(=O)[C@H](CCC(N)=O)NC(=O)[C@H](CC(C)C)NC(=O)[C@H](CCC(N)=O)NC(=O)CCCCCNC(=O)CNC(=O)[C@H](Cc1c[nH]c2ccccc12)NC(=O)[C@@H](NC(=O)[C@@H](NC(=O)[C@H](CC(C)C)NC(=O)[C@H](CCC(N)=O)NC(=O)[C@H](CC(C)C)NC(=O)[C@H](CC(C)C)NC(=O)[C@H](Cc1c[nH]cn1)NC(=O)[C@H](CCC(N)=O)NC(C)=O)[C@@H](C)O)C(C)C)C(=O)N[C@@H](CC(C)C)C(=O)N[C@@H](C)C(=O)N[C@H](C(=O)N[C@@H](CCC(=O)O)C(=O)O)C(C)C` (HELM PEPTIDE1{[ac].Q.H.L.L.Q.L.T.V.W.G.[O=C(CCCCCN[*:1])[*:2]].Q.L.Q.A.R.I.L.A.V.E}$$$$V2.0) was run?
Answer: The IC50 was 40 µM.

Question: For `CC[C@H](C)[C@H](NC(=O)[C@H](CCCN=C(N)N)NC(=O)[C@H](C)NC(=O)[C@H](CCC(N)=O)NC(=O)[C@H](CC(C)C)NC(=O)[C@H](CCC(N)=O)NC(=O)CCCCCNC(=O)CCCCCNC(=O)CNC(=O)[C@H](Cc1c[nH]c2ccccc12)NC(=O)[C@@H](NC(=O)[C@@H](NC(=O)[C@H](CC(C)C)NC(=O)[C@H](CCC(N)=O)NC(=O)[C@H](CC(C)C)NC(=O)[C@H](CC(C)C)NC(=O)[C@H](Cc1c[nH]cn1)NC(=O)[C@H](CCC(N)=O)NC(C)=O)[C@@H](C)O)C(C)C)C(=O)N[C@@H](CC(C)C)C(=O)N[C@@H](C)C(=O)N[C@H](C(=O)N[C@@H](CCC(=O)O)C(=O)O)C(C)C` (HELM PEPTIDE1{[ac].Q.H.L.L.Q.L.T.V.W.G.[O=C(CCCCCN[*:1])[*:2]].[O=C(CCCCCN[*:1])[*:2]].Q.L.Q.A.R.I.L.A.V.E}$$$$V2.0), which IC50 is on record?
Answer: The IC50 was 65.7 µM.

Question: `CC[C@H](C)[C@H](NC(=O)[C@H](CCCN=C(N)N)NC(=O)[C@H](C)NC(=O)[C@H](CCC(N)=O)NC(=O)[C@H](CC(C)C)NC(=O)[C@H](CCC(N)=O)NC(=O)CCCCCNC(=O)[C@H](Cc1c[nH]c2ccccc12)NC(=O)[C@@H](NC(=O)[C@@H](NC(=O)[C@H](CC(C)C)NC(=O)[C@H](CCC(N)=O)NC(=O)[C@H](CC(C)C)NC(=O)[C@H](CC(C)C)NC(=O)[C@H](Cc1c[nH]cn1)NC(=O)[C@H](CCC(N)=O)NC(C)=O)[C@@H](C)O)C(C)C)C(=O)N[C@@H](CC(C)C)C(=O)N[C@@H](C)C(=O)N[C@H](C(=O)N[C@@H](CCC(=O)O)C(=O)O)C(C)C` (HELM PEPTIDE1{[ac].Q.H.L.L.Q.L.T.V.W.[O=C(CCCCCN[*:1])[*:2]].Q.L.Q.A.R.I.L.A.V.E}$$$$V2.0) was tested. Which IC50 did it give?
Answer: The IC50 was 40 µM.

— ChEMBL document CHEMBL1129074, “Inhibitors of human immunodeficiency virus type 1 derived from gp41 transmembrane protein: structure--activity studies” (J Med Chem, 1996)
